Source: patent US20260070922A1, “PYRAZOLE AND IMIDAZOLE DERIVATIVES AS DUAL OREXIN AND KAPPA-OPIOID RECEPTORS MODULATORS COMPOSITION, METHODS FOR TREATING NEUROLOGICAL AND PSYCHIATRIC DISORDERS” (HAGER BIOSCIENCES, LLC, priority 2022, published 2026)

Assays:
[1] = target: T1, Orexin type 1 (OX1R) receptor (Homo sapiens, UniProt O43613); assay: In vitro orexin antagonism assay: intracellular calcium measurement (FLIPR), orexin-A 3 nM as agonist; assay type: cell-based; conditions: for IC50: first value of IC50/Kb cell; for Kb: second value of IC50/Kb cell; for inhibition at 1 µM: read-out: OX1R, % Inh. @ 1 uM
T1 construct: expressed in transfected cells; host or cells: CHO cells (G418 selection)
T1 sequence (O43613 1-425): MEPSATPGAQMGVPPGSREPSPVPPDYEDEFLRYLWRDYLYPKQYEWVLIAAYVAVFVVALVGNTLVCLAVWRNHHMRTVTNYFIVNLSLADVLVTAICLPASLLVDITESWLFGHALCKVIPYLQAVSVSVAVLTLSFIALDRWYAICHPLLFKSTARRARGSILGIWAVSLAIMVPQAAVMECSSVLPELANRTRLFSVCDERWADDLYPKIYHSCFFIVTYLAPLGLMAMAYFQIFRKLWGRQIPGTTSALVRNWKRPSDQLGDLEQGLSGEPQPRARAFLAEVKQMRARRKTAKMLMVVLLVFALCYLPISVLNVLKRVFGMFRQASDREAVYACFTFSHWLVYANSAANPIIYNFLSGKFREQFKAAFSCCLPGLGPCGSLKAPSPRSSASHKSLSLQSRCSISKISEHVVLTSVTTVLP
Protocol: (§1) In Vitro Orexin Antagonism Measurement Assay: Intracellular Calcium Measurements:
(§2) Chinese hamster ovary (CHO) cells expressing the human […] and the human orexin-2 receptor, respectively, are grown in culture medium (Ham F-12 with L-Glutamine) containing 300 μg/mL G418, 100 U/mL penicillin, 100 μg/mL streptomycin and 10% heat inactivated fetal calf serum (FCS). The cells are seeded at 20,000 cells/well into 384-well black clear bottom sterile plates (Greiner). The seeded plates are incubated overnight at 37° C. in 5% 002. Human orexin-A as an agonist is prepared as 1 mM stock solution in MeOH: water (1:1), diluted in HBSS containing 0.1% bovine serum albumin (BSA), NaHCO3: 0.375 g/L and 20 mM HEPES for use in the assay at a final concentration of 3 nM.
(§3) Antagonists are prepared as 10 mM stock solution in DMSO, then diluted in 384-well plates using DMSO followed by a transfer of the dilutions into in HBSS containing 0.1% bovine serum albumin (BSA), NaHCO3: 0.375 g/L and 20 mM HEPES. On the day of the assay, 50 μL of staining buffer (HBSS containing 1% FCS, 20 mM HEPES, NaHCO3: 0.375 g/L, 5 mM probenecid (Sigma) and 3 μM of the fluorescent calcium indicator fluo-4 AM (1 mM stock solution in DMSO, containing 10% pluronic) is added to each well. The 384-well cell-plates are incubated for 50 min at 37° C. in 5% CO2 followed by equilibration at RT for 30 min before measurement.
(§4) Within the Fluorescent Imaging Plate Reader (FLIPR Tetra, Molecular Devices), antagonists are added to the plate in a volume of 10 μL/well, incubated for 120 min and finally 10 μL/well of agonist is added. Fluorescence is measured for each well at 1 second intervals, and the height of each fluorescence peak is compared to the height of the fluorescence peak induced by 3 nM orexin-A with vehicle in place of antagonist. The IC50 value (the concentration of compound needed to inhibit 50% of the agonistic response) is determined and may be normalized using the obtained IC50 value of an on-plate reference compound. Optimized conditions were achieved by adjustment of pipetting speed and cell splitting regime. The calculated IC50values may fluctuate depending on the daily cellular assay performance. Fluctuations of this kind are known to those skilled in the art.

[2] = target: T2, human orexin-2 receptor (OX2R) (Homo sapiens, UniProt O43614); assay: as above; assay type: cell-based; conditions: for inhibition at 1 µM: read-out: OX2R, % Inh. @ 1 uM; for IC50: first value of IC50/Kb cell; for Kb: second value of IC50/Kb cell
T2 construct: expressed in transfected cells; host or cells: CHO cells (G418 selection)
T2 sequence (O43614 1-444): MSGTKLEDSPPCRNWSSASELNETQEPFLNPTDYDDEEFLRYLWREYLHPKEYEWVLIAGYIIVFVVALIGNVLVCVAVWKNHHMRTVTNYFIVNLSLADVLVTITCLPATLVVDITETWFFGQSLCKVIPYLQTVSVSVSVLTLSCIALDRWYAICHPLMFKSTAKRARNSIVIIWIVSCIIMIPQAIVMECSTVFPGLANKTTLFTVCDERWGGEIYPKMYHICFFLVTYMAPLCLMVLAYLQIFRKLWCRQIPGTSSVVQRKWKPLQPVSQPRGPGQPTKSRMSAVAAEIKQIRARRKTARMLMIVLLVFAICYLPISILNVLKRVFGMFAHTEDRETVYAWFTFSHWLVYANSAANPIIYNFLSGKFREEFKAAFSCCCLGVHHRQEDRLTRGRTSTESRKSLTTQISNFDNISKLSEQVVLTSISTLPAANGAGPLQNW
Protocol: Antagonistic activities on both orexin receptors have been measured for each example compound using the following procedure:
as §1, §2, §3
as §4, with “art. In the case where IC50values have been determined several times for the same compound, the geometric mean has been given.” for “art.”

O=C(c1c(-c2ccccc2)nn2c1COCC2)N1CCC[C@H]1CNc1ccc(C(F)(F)F)cn1 [Example 2]
IC50 [1]: 120 nM

CCc1cnc(NC[C@@H]2[C@H](C)CCCN2C(=O)c2c(-c3ccccc3)nn3c2COCC3)nc1 [Example 5]
IC50 [1]: 140 nM

C[C@@H]1CCCN(C(=O)c2c(-c3ccccc3)nn3ccccc23)[C@@H]1CNc1ccc(C(F)(F)F)cn1 [Example 6]
Kb [1]: 2 nM

CCc1cnc(NC[C@@H]2CCCN2C(=O)c2c(-c3ccccc3)nn3ccccc23)nc1 [Example 15]
IC50 [1]: 180 nM | Kb [1]: 38 nM

O=C(c1c(-c2ccccc2)nc2ccccn12)N1CCC[C@H]1COc1ccc(C(F)(F)F)cn1 [Example 18]
IC50 [1]: 290 nM

C[C@@H]1CCCN(C(=O)c2c(-c3ccccc3)nn3ccccc23)[C@@H]1CNc1ncc(F)cn1 [Example 22]
IC50 [1]: 10 nM | inhibition at 1 µM [1]: 82.2% | Kb [1]: 2 nM | inhibition at 1 µM [2]: -3%

O=C(c1c(-c2ccccc2)nn2ccccc12)N1CCC[C@H]1CNc1ncc(F)cn1 [Example 23]
inhibition at 1 µM [1]: 23% | inhibition at 1 µM [2]: 13.5%

O=C(c1c(-c2ccccc2)nn2ccccc12)N1CCCC[C@H]1CNc1ccc(C(F)(F)F)cn1 [Example 25]
IC50 [1]: 17 nM | inhibition at 1 µM [1]: 99.8% | Kb [1]: 4 nM | IC50 [2]: 74 nM | inhibition at 1 µM [2]: 72% | Kb [2]: 10 nM

O=C(c1c(-c2ccccc2)nc2ccccn12)N1CCCC[C@H]1CNc1ccc(C(F)(F)F)cn1 [Example 26]
IC50 [1]: 14 nM | inhibition at 1 µM [1]: 99.5% | Kb [1]: 3 nM | inhibition at 1 µM [2]: 39.4%

O=C(c1c(-c2ccccc2)nn2c1COCC2)N1CCCC[C@H]1CNc1ccc(C(F)(F)F)cn1 [Example 27]
IC50 [1]: 9 nM | inhibition at 1 µM [1]: 99% | Kb [1]: 2 nM | inhibition at 1 µM [2]: 50.4%

O=C(c1nn2ccccc2c1-c1ccccc1)N1CCC[C@H]1COc1ccc(C(F)(F)F)cn1 [Example 28]
IC50 [1]: 4 nM | inhibition at 1 µM [1]: 98.4% | Kb [1]: 1 nM | inhibition at 1 µM [2]: 52.5%

O=C(c1nn2ccccc2c1-c1ccccc1)N1CCC[C@H]1CNc1ccc(C(F)(F)F)cn1 [Example 29]
IC50 [1]: 5 nM | inhibition at 1 µM [1]: 99.5% | Kb [1]: 1 nM | IC50 [2]: 35 nM | inhibition at 1 µM [2]: 84.1% | Kb [2]: 5 nM

O=C(c1c(-c2ccccc2)nn2ccccc12)N1CCC[C@H]1CNc1ccc(F)cn1 [Example 30]
inhibition at 1 µM [1]: 32.5% | inhibition at 1 µM [2]: 14.8%

O=C(c1c(-c2ccccc2)nc2ncccn12)N1CCC[C@H]1CNc1ccc(F)cn1 [Example 31]
inhibition at 1 µM [1]: 4.7% | inhibition at 1 µM [2]: -3.4%

O=C(c1c(-c2ccccc2)nc2ncccn12)N1CCC[C@H]1CNc1ccc(C(F)(F)F)cn1 [Example 32]
inhibition at 1 µM [1]: 19.7% | inhibition at 1 µM [2]: 3.6%

O=C(c1c(-c2ccccc2)nc2ccccn12)N1CCC[C@H]1CNc1ccc(F)cn1 [Example 33]
inhibition at 1 µM [1]: 4.8% | inhibition at 1 µM [2]: 0.7%

O=C(c1c(-c2ccccc2)nc2ncccn12)N1CCC[C@H]1Cn1ccc(-c2ccccc2)n1 [Example 35]
inhibition at 1 µM [1]: 54.8% | inhibition at 1 µM [2]: 23.7%

O=C(c1c(-c2ccccc2)nc2cnccn12)N1CCC[C@H]1CNc1ccc(C(F)(F)F)cn1 [Example 36]
inhibition at 1 µM [1]: 53.7% | inhibition at 1 µM [2]: 14.7%

O=C(c1c(-c2ccccc2)nn2ccccc12)N1CCC[C@H]1COc1ccc(Br)nc1 [Example 37]
inhibition at 1 µM [1]: 25.4% | inhibition at 1 µM [2]: 10.4%

O=C(c1c(-c2ccccc2)nc2ccccn12)N1CCC[C@H]1COc1ccc(Br)nc1 [Example 38]
inhibition at 1 µM [1]: 8.2% | inhibition at 1 µM [2]: -6.1%

O=C(c1c(-c2ccccc2)nc2cnccn12)N1CCC[C@H]1COc1ccc(C(F)(F)F)nc1 [Example 39]
inhibition at 1 µM [1]: 39.4% | inhibition at 1 µM [2]: 7.9%

O=C(c1c(-c2ccc(F)cc2)nn2ccccc12)N1CCC[C@H]1CNc1ccc(F)cn1 [Example 41]
inhibition at 1 µM [1]: 45.6% | inhibition at 1 µM [2]: 3.2%

O=C(c1c(-c2ccc(F)cc2)nn2ccccc12)N1CCC[C@H]1CNc1ccc(C(F)(F)F)cn1 [Example 42]
IC50 [1]: 12 nM | inhibition at 1 µM [1]: 98.2% | Kb [1]: 3 nM | inhibition at 1 µM [2]: 39.4%

O=C(c1c(-c2ccc(F)cc2)nn2ccccc12)N1CCC[C@H]1COc1ccc(C(F)(F)F)cn1 [Example 43]
IC50 [1]: 9 nM | inhibition at 1 µM [1]: 93.1% | Kb [1]: 2 nM | inhibition at 1 µM [2]: 28.3%

O=C(c1c(-c2ccccc2)nc2ccccn12)N1CCCC[C@H]1COc1ccc(C(F)(F)F)cn1 [Example 45]
IC50 [1]: 4 nM | inhibition at 1 µM [1]: 98.7% | Kb [1]: 0.9 nM | inhibition at 1 µM [2]: 38.8%

O=C(c1c(-c2ccccc2)nc2ncccn12)N1CCCC[C@H]1COc1ccc(C(F)(F)F)cn1 [Example 47]
inhibition at 1 µM [1]: 59.5% | inhibition at 1 µM [2]: 1.2%

O=C(c1c(-c2ccccc2)nc2ncccn12)N1CCC[C@H]1COc1ccc(C(F)(F)F)cn1 [Example 48]
inhibition at 1 µM [1]: 18.9% | inhibition at 1 µM [2]: -1.1%

O=C(c1c(-c2ccccc2)nc2ccc(F)cn12)N1CCC[C@H]1COc1ccc(C(F)(F)F)cn1 [Example 51]
IC50 [1]: 80 nM | inhibition at 1 µM [1]: 88.1% | Kb [1]: 17 nM | inhibition at 1 µM [2]: 46.5%

O=C(c1c(-c2ccccc2)nc2cc(F)ccn12)N1CCC[C@H]1COc1ccc(C(F)(F)F)cn1 [Example 52]
IC50 [1]: 327 nM | inhibition at 1 µM [1]: 79.2% | Kb [1]: 69 nM | inhibition at 1 µM [2]: 43.3%

O=C(c1c(-c2ccc(F)cc2)nn2c1COCC2)N1CCC[C@H]1Cn1ccc(-c2ccc(F)cc2)n1 [Example 54]
IC50 [1]: 122 nM | inhibition at 1 µM [1]: 98% | Kb [1]: 26 nM | inhibition at 1 µM [2]: 45.1%

O=C(c1c(-c2ccccc2F)nn2c1COCC2)N1CCC[C@H]1Cn1ccc(-c2ccccn2)n1 [Example 70]
IC50 [1]: 120 nM | inhibition at 1 µM [1]: 60% | Kb [1]: 25 nM | inhibition at 1 µM [2]: 35%

O=C(c1c(-c2ccccc2F)nn2c1COCC2)N1CCC[C@H]1Cn1cc(-c2ccccn2)cn1 [Example 71]
inhibition at 1 µM [1]: 14% | inhibition at 1 µM [2]: 40%

O=C(c1c(-c2ccccc2F)nn2c1COCC2)N1CCC[C@H]1Cn1cc(-c2ccccc2)cn1 [Example 72]
IC50 [1]: 620 nM | inhibition at 1 µM [1]: 64% | Kb [1]: 13 nM | inhibition at 1 µM [2]: 45%

O=C(c1c(-c2ccccc2)nc2ccc(F)cn12)N1CCC[C@H]1Cn1cc(-c2ccccn2)cn1 [Example 74]
inhibition at 1 µM [1]: 40% | inhibition at 1 µM [2]: 45%
